Assays:
rat MAO-A [1] = test system: rat MAO-A; design: method as in PMID 28771213; details: Table 1, literature overview; cited from earlier work
rat MAO-B [2] = test system: rat MAO-B; design: method as in PMID 28771213; details: Table 1, literature overview; cited from earlier work
Swiss mouse = test system: Swiss mouse; design: method as in PMID 28771213; details: controls negative and positive (imipramine); cited from earlier work
human MAO-A = biological target: human MAO-A; design: method as in PMID 21190052; details: competitive inhibitor; cited from earlier work
MAO B = biological target: MAO B; design: method as in PMID 21190052; details: cited from earlier work
rat MAO-B [3] = details: mitochondrial rat brain; cited from earlier work
hMAO-A = biological target: T1, hMAO-A (Homo sapiens, UniProt P21397); assay: Recombinant human MAO-A inhibition screening (Amplex Red, p-tyramine); assay type: biochemical
T1 construct: purchased Sigma-Aldrich; host or cells: insect cells (BTI-TN-5B14) infected with recombinant baculovirus
T1 sequence (P21397 1-527): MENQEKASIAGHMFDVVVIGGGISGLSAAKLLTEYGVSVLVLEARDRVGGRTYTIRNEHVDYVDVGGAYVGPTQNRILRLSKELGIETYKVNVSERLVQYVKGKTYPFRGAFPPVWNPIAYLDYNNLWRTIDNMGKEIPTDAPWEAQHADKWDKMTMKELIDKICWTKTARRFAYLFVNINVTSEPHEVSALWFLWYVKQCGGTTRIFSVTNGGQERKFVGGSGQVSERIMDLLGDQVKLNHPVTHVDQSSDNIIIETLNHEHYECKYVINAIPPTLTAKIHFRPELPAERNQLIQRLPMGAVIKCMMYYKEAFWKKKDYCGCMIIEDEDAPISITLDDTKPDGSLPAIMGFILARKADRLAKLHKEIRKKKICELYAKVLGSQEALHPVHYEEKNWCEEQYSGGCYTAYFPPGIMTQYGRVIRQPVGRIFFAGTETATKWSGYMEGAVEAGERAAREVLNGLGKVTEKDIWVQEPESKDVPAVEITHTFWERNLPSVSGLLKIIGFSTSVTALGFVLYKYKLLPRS
Source text: (§1) To evaluate IC50 values for the inhibition of human MAO-A and MAO-B by newly synthesized compounds the commercially available recombinant human enzymes expressed in insect cells were used (Sigma-Aldrich). The MAO inhibition assay was based on the method described by Anderson et al., 1993 and Chimenti et al. with some modifications. The Amplex Red MAO Kit tyramine (Sigma-Aldrich) affords a suitable fluorimetric method to evaluate MAO enzyme action of synthetic and natural compounds. In the assay, MAO reacts with p-tyramine, a common substrate for both MAO isoforms, ensuing in the production of H2O2, which is identified by a fluorimetric method (λex = 530/λem = 585 nm). Each test well contained 0.1 mL of sodium phosphate buffer (0.05 M, pH 7.4), a range of concentrations of the eugenol based derivatives or reference compounds along with recombinant hMAO-A or hMAO-B in appropriate quantity. After the preparation of this mixture the wells were subjected to incubation for 15 min at 37 °C, placed in the dark fluorimeter chamber. Once this incubation period over, the process was rendered by mixing 200 µM Amplex Red reagent (Sigma-Aldrich), 1 U/mL horseradish peroxidase (Sigma-Aldrich) and p-tyramine (Sigma-Aldrich). Subsequently, the formation of hydrogen peroxide exerted by MAO isoforms was quantified by using Amplex-Red reagent, a non-fluorescent probe that reacts with H2O2 in the existence of horse radish peroxidase to generate the fluorescent component resorufin. Moreover, the control analysis was calculated in the absence of compound and reference inhibitors. The probability of compounds to change the fluorescence produced in the reaction mix due to non-enzymatic inhibition was assessed by mixing titled compounds to solutions of single Amplex Red reagent in a sodium phosphate buffer. Data were processed in Microsoft Excel, to calculate IC50 values.

mice [4] = test system: mice; design: method as in PMID 28771213; details: cited from earlier work
hMAO-B [5] = biological target: T2, hMAO-B (Homo sapiens, UniProt P27338); details: eugenol from Rhizoma acori graminei; cited from earlier work
T2 construct: purchased Sigma-Aldrich; host or cells: insect cells (BTI-TN-5B14) infected with recombinant baculovirus
T2 sequence (P27338 1-520): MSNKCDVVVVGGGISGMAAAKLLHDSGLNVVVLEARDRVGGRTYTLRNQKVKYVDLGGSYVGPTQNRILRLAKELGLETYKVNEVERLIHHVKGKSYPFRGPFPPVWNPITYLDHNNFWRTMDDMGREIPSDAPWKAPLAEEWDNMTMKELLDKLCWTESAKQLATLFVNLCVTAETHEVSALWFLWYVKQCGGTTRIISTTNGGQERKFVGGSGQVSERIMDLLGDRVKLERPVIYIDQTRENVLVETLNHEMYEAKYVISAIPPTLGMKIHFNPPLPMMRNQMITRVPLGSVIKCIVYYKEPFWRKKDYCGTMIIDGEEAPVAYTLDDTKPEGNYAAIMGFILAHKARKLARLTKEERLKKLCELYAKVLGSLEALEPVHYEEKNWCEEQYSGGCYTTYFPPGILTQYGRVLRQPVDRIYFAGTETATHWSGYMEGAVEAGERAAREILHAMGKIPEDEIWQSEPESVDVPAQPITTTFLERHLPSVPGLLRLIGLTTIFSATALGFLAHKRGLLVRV

hMAO-B [6] = biological target: T2, hMAO-B; assay: Recombinant human MAO-B inhibition screening (Amplex Red, p-tyramine); assay type: biochemical; details: p-tyramine substrate, mean SEM
Source text: as §1

[7] = Ferric reducing antioxidant power (FRAP) assay; details: Table 9, mean ± SEM, n = 3;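 also: Ferrous-TPTZ reduction read as absorbance at 593 nm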
Experimental: The capacity of antioxidants to decrease ferric iron is measured by this method. The reaction of […] (TPTZ) and complex ferric iron yields ferrous form at low pH. […] This method was adopted from the reports of Benzie et al..

[8] = Nitric oxide scavenging activity; details: Table 8, mean ± SEM, n = 3
Source text: The generation of nitric oxide (NO·) on biological tissues is mediated by particular nitric oxide synthases enzyme that control the catabolism of the arginine to citrulline via creation of NO through a five electron oxidative reaction. At the physiological pH (7.2) in aqueous solution sodium nitroprusside decompose to produce NO·. Finally, NO· reacts with oxygen at underaerobic conditions and produces stable products (nitrate and nitrite), this amount can be determined by means of Griess reagent. The procedure for the nitric oxide scavenging activity was adopted from reports of Alam et al..

[9] = Hydrogen peroxide scavenging (H2O2) assay; details: Table 7, mean ± SEM, n = 3
Experimental: Hydrogen peroxide generally turns into water and oxygen and produces highly toxic hydroxyl radical that renders the damage to DNA and peroxidation of lipid. H2O2 scavenging ability of eugenol based derivatives was evaluated by method described by Nakano and colleagues with some alteration. The hydrogen peroxide solution (40 mM) was prepared in phosphate buffer (40 mM pH 7.4) and addition of several ranges of synthesized derivatives (05–80 μg/mL) was done into H2O2 solution (2 mL). The determination of H2O2 concentration was done by UV/Vis Epoch ELISA reader at 230 nm upon incubation of 10 min. Solution of phosphate buffer without H2O2 was noted as blank reading. The hydrogen peroxide percentage inhibition was estimated through the formula [(AH − AD)/AO] × 100, where AH is the absorbance of the control and AD is the absorbance of compounds/reference taken as 05–80 μg/mL L-ascorbic acid.

DPPH scavenging activity = details: Table 6, mean ± SEM, n = 3
Experimental: Solutions of synthesized compounds were set in ethanol/water (1:1) having 10 mM to 100 mM at a period of 10 mM. The 0.01% DPPH· stock solution was prepared in ethanol/water (1:1). Samples were prepared as 5 mL DPPH· solution was mixed with 5 mL L-ascorbic acid solution then shaken vigorously and kept in the dark. Corresponding blank sample were prepared and L-ascorbic acid was used as reference standard. […] The actual decrease in absorption induced by the test was compared with the positive controls. The IC50 values were calculated use the dose inhibition curve in linear range by plotting the extract concentration versus the corresponding scavenging effect through following equation [(ADR − APR)/AO] × 100. Where ADR is the absorbance prior to reaction and APR is the absorbance after reaction with DPPH·.

mice [10] = test system: mice; design: method as in PMID 28771213; details: repeated administration, dose-dependent; cited from earlier work
mice [11] = test system: mice; design: method as in PMID 21190052; details: administered for 14 days; cited from earlier work
rat MAO-A [12] = details: mitochondrial rat brain; cited from earlier work

Structure (SMILES)	IC50 (rat MAO-A [1]) [µM]	IC50 (rat MAO-B [2]) [µM]	Observations in behavioral test (FST) (Swiss mouse)	Ki (human MAO-A) [µM]	Ki (MAO B) [µM]	Ki (rat MAO-B [3]) [µM]	Selectivity index (hMAO-A; IC50 (MAO-A)/IC50 (MAO-B))	IC50 (hMAO-A; recombinant hMAO-A, p-tyramine substrate, mean SEM) [µM]	LD50 (mice [4]) [mg/kg]	Ki (hMAO-B [5]) [µM]	IC50 (hMAO-B [6]) [µM]	FRAP IC50 [7] [µg/mL]	Nitric oxide scavenging IC50 [8] [µg/mL]	H2O2 scavenging IC50 [9] [µg/mL]	DPPH scavenging IC50 (DPPH scavenging activity) [µg/mL]	Immobility in the FST and tail suspension test (TST) (mice [10])	Forced swim test (FST) score (mice [11])	Ki (rat MAO-A [12]) [µM]
COc1cc(C=O)ccc1O [Vanillin]	17.88 ± 0.16	45.34 ± 0.09	Controls: negative and positive (imipramine) The treatment reduced the spontaneous locomotion															
C=CCc1ccc(O)c(OC)c1 [Eugenol]	5.34 ± 0.065	24 ± 1.32		25	211	79.9	1.24	16.54 ± 0.045	4500	15	13.3 ± 0.037	10.627 ± 0.082	11.724 ± 0.003	9.980 ± 0.012	10.29 ± 0.011	decreased immobility	significantly increased	25.7

Source: paper PMC6661809, “Lead optimization for promising monoamine oxidase inhibitor from eugenol for the treatment of neurological disorder: synthesis and in silico based study” (BMC Chemistry, 2019)
